Source: patent publication US7902341B2, “Methods and compositions for modulating somatolactogenic functions” (Trustees of the University of Pennsylvania, priority 1999, dated 2011)

Tests used:
[1] = system: Nb2 cells; experiment: Nb2 cell proliferation (3H-thymidine) to assess CypB modulation of somatolactogenic action; format: cell-based, rat; conditions: for enhancement of PRL-driven growth compared to cultures that received only PRL: Nb2 cells, added to PRL-containing medium, most prominent at 5-10 mM CypB and 50 pM PRL
Protocol: (§1) The effect of exogenous CypB on PRL-driven proliferation was examined with the rat Nb2 T-cell and the human T47D breast cancer line. […] This dose-dependent biphasic effect was most prominent at physiologic concentrations (5-10 mM) of CypB and PRL (50 pM) found in human serum. […] To determine the effect of CypB on cellular growth driven by the larger family of cytokines, to which PRL belongs, proliferation driven by interleukin-2 (IL-2), IL-3 and GH was examined.
Nb2-cells (5×10^4; PRL-dependent, rat T-lymphoma) were plated in each well of 96 well plates in a defined DMEM-serum free medium (0.1 mM 2-mercaptoethanol, 1% penicillin/streptomycin, and 1% ITS+(Calbiochem)). Cells were rested for 24 hours at 37° C. in this defined medium in the absence of PRL before the addition of 5-500 pM PRL (either as human pituitary isolated PRL, National Hormone and Pituitary Program, NIDDK; recombinant human PRL from E. coli, Genzyme; or recombinant human PRL from Drosophila S2 cells) alone or premixed with 1-2000 fold excess of purified CypB. Parallel studies were performed using human pituitary-derived GH (National Hormone and Pituitary Program, NIDDK). Cultures were incubated for 48 hours at 37° C. and proliferation was evaluated by the addition of 0.5 μCi of ^3H-thymidine for four hours followed by harvesting and scintillography. When stimulated with PRL alone, Nb2 cells yield sigmoid shaped growth curves that plateau at approximately 2 ng PRL/ml.

[2] = molecular target: T1, PRL (Homo sapiens, UniProt P01236); experiment: Detection of PRL-CypB complexes by co-immunoprecipitation; format: binding; conditions: for interaction with PRL (co-immunoprecipitation): purified epitope-tagged recombinant proteins admixed, reducing agent or divalent cation
T1 construct: Full length PRL cDNA was generated by PCR; made in house; host or cells: Drosophila S2 cells
T1 sequence (P01236 29-227): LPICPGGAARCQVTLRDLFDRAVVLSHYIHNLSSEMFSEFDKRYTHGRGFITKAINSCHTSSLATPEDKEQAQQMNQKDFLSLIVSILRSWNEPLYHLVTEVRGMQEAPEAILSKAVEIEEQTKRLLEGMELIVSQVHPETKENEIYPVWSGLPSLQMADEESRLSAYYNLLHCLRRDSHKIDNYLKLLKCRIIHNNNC
Protocol: Complexes were immunoprecipitated by the addition of 1 μg of polyclonal anti-histidine antibody (#sc-803, Santa Cruz Biotech) for one hour followed by roatation for one hour with 50 μl Protein-A beads. Precipiated complexes were separated by 15% SDS-PAGE and transferred to PVDF. Immunoblots were blocked for one hour at room temperature with 5% milk in PBS containing 1% TWEEN-20 (PBST) and immunoblotted with a monoclonal anti-myc antibody (1:1000, mAb 9E10) for one hour. Immunoblots were analyzed by incubation with an anti-mouse secondary antibody conjugated to horseradish peroxidase (1:2000, Boehringer Mannheim) for one hour followed by incubation with ECL Plus (Amersham Pharmacia Biotech) amnd exposure to Biomax film (Kodak).

[3] = system: IL-2- and IL-3-driven proliferation; experiment: IL-2- and IL-3-driven proliferation with added CypB; format: cell-based; conditions: varying concentration of CypB
Protocol: as §1

[4] = system: T47D human breast cancer cells; experiment: Nuclear retrotranslocation of PRL by indirect anti-PRL immunofluorescence; format: cell-based; conditions: defined T47D culture medium containing the co-mitogen EGF
Protocol: Experiments were performed to examine the ability of CypB to enhance nuclear retrotranslocation of PRL, and thereby PRL-driven proliferation.
The role of this sequence in the CypB-mediated retrotranslocation of PRL, and its associated enhancement of growth was tested by mutagenic approaches. The putative nuclear localization sequence of CypB was deleted in the mutant CypB-NT.

Substance	enhancement of PRL-driven growth compared to cultures that received only PRL [1]	interaction with PRL (co-immunoprecipitation) [2]	enhancement of PRL-induced proliferation ([1]; cell line not stated)	enhancement of GH-driven proliferation compared to GH alone ([1]; physiological concentrations of CypB, human pituitary-derived GH)	interaction with PRL in human serum (co-immunoprecipitation; binding to sepharose-conjugated recombinant CypB) ([2]; human serum)	effect on IL-2-driven proliferation [3]	effect on IL-3-driven proliferation [3]	T47D nuclei exhibiting anti-PRL immunofluorescence [4]
CypA: recombinant form of the highly homologous cyclophilin family member [reference compound]	did not result in any potentiation	failed to interact with PRL						
CypB: cyclophilin family cis-trans peptidyl prolyl isomerase; recombinant His-tagged wild-type protein (SEQ ID NO: 1)	eight-fold	direct interaction of CypB with PRL	failed to enhance PRL-induced proliferation	forty-fold	direct co-immunoprecipitation of PRL with CypB from human serum	Neither IL-2- nor IL-3-driven proliferation was altered	Neither IL-2- nor IL-3-driven proliferation was altered	95-100%
